Molecular target: T1, Acetylcholinesterase (ACHE) (Electrophorus electricus, UniProt O42275)
T1 construct: purchased Sigma Aldrich
Experiment: ACHE biosensor inhibition versus incubation time (decrease in amperometric oxidation current)
Type: biochemical
Settings: 1 μM paraoxon, 5 mM ACTH, 400 mV
Procedure: Sodium chloride (NaCl) was purchased from Sigma-Aldrich, ground using mortar and pestle, and filtered into different sizes with 8 in wire cloth sieves. Acetylcholinesterase (ACHE) from Electrophorus electricus was purchased from Sigma Aldrich as lyophilized powder (200-1000 units per mg) and was used without any further purification. ACHE ink aliquots were made by dissolving the enzyme (2 mg) in 1 mL of 50% glycerol and 50% 1× phosphate-buffer solution (0.1 M PBS, pH 7.0), aliquoted into 25 μL, and stored in a −80° C. freezer until use. […]. All other chemicals and solvents were purchased from Sigma-Aldrich and were used without any other purification unless otherwise stated. Water was filtered through a B-Pure Water Purification system (resistivity, […]).
SIIML electrodes were functionalized with ACHE using 1-ethyl-3-(3-dimethylaminopropyl) carbodiimide and N-hydroxysuccinimide (EDC/NHS) chemistry, which facilitated the functionalization of carboxyl groups to the amines within the ACHE enzyme.^39 In summary, the CO2 laser annealed SIIML electrodes were dipped in a solution of EDC/NHS mixture (50 mM EDC, 50 mM NHS) and incubated for 30 min on a tilter mixer. The electrodes were then rinsed with 1×PBS, excess water was blown off but not completely dried as the surface remained still “wetted”, this allowed for easier pipetting onto the slightly hydrophobic graphene surface. […]

T1 sequence (O42275 24-633): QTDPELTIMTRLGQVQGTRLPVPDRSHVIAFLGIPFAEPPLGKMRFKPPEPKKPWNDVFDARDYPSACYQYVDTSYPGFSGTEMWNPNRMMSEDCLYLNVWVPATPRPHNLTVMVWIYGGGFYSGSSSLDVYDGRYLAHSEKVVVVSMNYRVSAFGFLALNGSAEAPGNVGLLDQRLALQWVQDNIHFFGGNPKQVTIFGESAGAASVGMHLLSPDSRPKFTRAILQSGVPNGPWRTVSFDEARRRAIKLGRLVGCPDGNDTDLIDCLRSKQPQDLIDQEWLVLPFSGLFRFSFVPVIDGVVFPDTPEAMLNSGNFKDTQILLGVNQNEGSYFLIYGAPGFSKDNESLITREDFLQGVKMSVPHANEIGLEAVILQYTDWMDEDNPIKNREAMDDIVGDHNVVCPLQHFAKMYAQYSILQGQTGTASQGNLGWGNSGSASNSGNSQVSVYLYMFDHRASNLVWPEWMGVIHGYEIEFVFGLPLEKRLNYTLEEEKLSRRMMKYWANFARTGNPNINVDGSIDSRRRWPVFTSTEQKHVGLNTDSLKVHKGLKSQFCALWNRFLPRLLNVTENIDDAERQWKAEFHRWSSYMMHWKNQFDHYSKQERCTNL

In the case of `CCOP(=O)(OCC)Oc1ccc([N+](=O)[O-])cc1` [paraoxon], the “inhibition of the sensor (percent of ACHE inhibited)” value (after 100 seconds incubation, large standard deviations) is reported as “roughly 50%” and the “inhibition of the sensor (percent of ACHE inhibited)” value (after 500 seconds incubation, low standard deviation) is reported as “about 90%”.

Source: patent publication US11971383B1, “Enhanced 3D porous architectured electroactive devices via impregnated porogens” (Iowa State University Research Foundation, Inc., priority 2018, dated 2024)
